Results on 26 compounds are retold here after ChEMBL document CHEMBL4265876, “Natural Products with Heteroatom-Rich Ring Systems” (J Nat Prod, 2017).

In brackets after ≈: the same amount, converted by molar mass.

The subject of one assay is T-cell. As to the kind of experiment: Inhibition of ConA-induced cell proliferation of BALB/c mouse T-lymphocytes assessed as reduction in [3H]thymidine incorporation incubated for 48 hrs by beta scintillation counting method. The class given is functional.
The test system of assay [1] is Micrococcus luteus. The assay is described as follows: Antibacterial activity against Micrococcus luteus assessed as inhibition zone at 20 ug. The class given is functional. Particulars: read-out: IZ.
In assay [2] the test system is L1210. The assay is described as follows: Cytotoxicity against mouse L1210 cells assessed as decrease in cell viability at 5 ug. Format: functional.
The nature of assay [3]: Antioxidant activity of the compound. Format: functional.
Assay [4] relates to Escherichia coli. As to the kind of experiment: Antibacterial activity against Escherichia coli assessed as inhibition zone at 50 ug/disk. Format: functional. Particulars: read-out: IZ.
Assay [5] concerns Staphylococcus aureus. The assay is described as follows: Antibacterial activity against Staphylococcus aureus assessed as inhibition zone at 50 ug/disk. Format: functional. As to conditions: read-out: IZ.
In a further assay the test system is SF-268. As to the kind of experiment: Cytotoxicity against human SF268 cells assessed as cell killing at 50 uM relative to control. The class given is functional.
Assay [6] in a line: Inhibition of protein kinase A (unknown origin). The arrangement: species or system Homo sapiens.
The test system of another assay is Ruegeria atlantica. The assay is described as follows: […] activity against Ruegeria atlantica assessed as inhibition zone at 50 ug/disk. The class given is functional. As to conditions: read-out: IZ.
A further assay deals with V79. As to the kind of experiment: Cytotoxicity against chinese hamster V79 cells. Format: cell-based. As to conditions: Cricetulus griseus.
A further assay has as its system Mucor hiemalis. As to the kind of experiment: Antifungal activity against Mucor hiemalis assessed as inhibition zone at 50 ug/disk. Format: functional. As to conditions: read-out: IZ.
For the next assay, the system named is Saccharomyces cerevisiae. The assay is described as follows: Antifungal activity against Saccharomyces cerevisiae assessed as inhibition zone at 50 ug/disk. Format: functional. As to conditions: read-out: IZ.
In the next assay the test system is Human alphaherpesvirus 1. As to the kind of experiment: Antiviral activity against HSV1. Format: functional, organism-based.
In assay [7] the test system is L1210. The assay is described as follows: Cytotoxicity against mouse L1210 cells. Format: functional, cell-based.
Assay [8] concerns the target Sodium-dependent serotonin transporter (Homo sapiens) (UniProt P31645). The assay is described as follows: Inhibition of serotonin transporter (unknown origin) at 10 uM.
For assay [9], the target named is Sodium-dependent noradrenaline transporter (Homo sapiens) (UniProt P23975). The assay is described as follows: Inhibition of norepinephrine transporter (unknown origin) at 10 uM.
In assay [10] the target is Sodium-dependent dopamine transporter (Homo sapiens) (UniProt Q01959). The assay is described as follows: Inhibition of dopamine transporter (unknown origin) at 10 uM.
Assay [11] concerns the target Mu-type opioid receptor (Homo sapiens) (UniProt P35372). As to the kind of experiment: Inhibition of mu opioid receptor (unknown origin) at 10 uM.
The next assay relates to Cercospora sojina. As to the kind of experiment: Antifungal activity against Cercospora sojina assessed as inhibition zone at 100 ug/hole. The class given is functional.
In a further assay the test system is Aspergillus niger. As to the kind of experiment: Antifungal activity against Aspergillus niger assessed as inhibition zone at 100 ug/hole. The class given is functional.
For the next assay, the system named is Fusarium oxysporum. The assay is described as follows: Antifungal activity against Fusarium oxysporum assessed as inhibition zone at 100 ug/hole. The class given is functional.
The test system of the next assay is Pyricularia oryzae. The assay is described as follows: Antimicrobial activity against Pyricularia orizae. The class given is functional.
Assay [12] concerns Escherichia coli. As to the kind of experiment: Antibacterial activity against Escherichia coli ATCC 10536 after 24 hrs by serial dilution method. The class given is functional. Particulars: ATCC 10536, 24 h.
Assay [13] relates to Staphylococcus aureus. The assay is described as follows: Antibacterial activity against Staphylococcus aureus ATCC 6538 after 24 hrs by serial dilution method. Format: functional. Particulars: ATCC 6538, 24 h.
For another assay, the system named is Pseudomonas aeruginosa. The assay is described as follows: Antibacterial activity against Pseudomonas aeruginosa ATCC 10145 after 24 hrs by serial dilution method. The class given is functional. Particulars: ATCC 10145, 24 h.
Another assay has as its system Bacillus subtilis. The assay is described as follows: Antibacterial activity against Bacillus subtilis ATCC 6051 after 24 hrs by serial dilution method. As to conditions: ATCC 6051, 24 h. The class given is functional.
Assay [14] deals with Micrococcus luteus. As to the kind of experiment: Antibacterial activity against Micrococcus luteus ATCC 9341 after 24 hrs by serial dilution method. Particulars: ATCC 9341, 24 h. The class given is functional.

Chain of Sodium-dependent serotonin transporter (Homo sapiens) (P31645 whole entry, looked up): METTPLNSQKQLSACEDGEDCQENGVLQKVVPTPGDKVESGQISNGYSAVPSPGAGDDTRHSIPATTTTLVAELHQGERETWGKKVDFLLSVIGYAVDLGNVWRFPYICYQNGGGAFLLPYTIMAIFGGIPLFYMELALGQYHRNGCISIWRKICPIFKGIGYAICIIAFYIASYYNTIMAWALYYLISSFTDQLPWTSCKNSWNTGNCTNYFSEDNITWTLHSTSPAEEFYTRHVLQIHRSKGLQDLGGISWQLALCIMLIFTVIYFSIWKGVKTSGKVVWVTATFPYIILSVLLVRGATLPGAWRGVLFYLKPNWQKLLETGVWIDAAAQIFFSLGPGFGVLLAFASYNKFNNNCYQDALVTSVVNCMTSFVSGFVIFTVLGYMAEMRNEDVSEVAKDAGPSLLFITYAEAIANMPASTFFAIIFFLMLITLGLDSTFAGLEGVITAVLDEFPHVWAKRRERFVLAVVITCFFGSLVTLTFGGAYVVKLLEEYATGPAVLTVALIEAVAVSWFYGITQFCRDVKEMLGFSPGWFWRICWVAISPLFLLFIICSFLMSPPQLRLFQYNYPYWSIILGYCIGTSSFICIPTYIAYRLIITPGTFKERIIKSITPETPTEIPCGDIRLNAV
Chain of Mu-type opioid receptor (Homo sapiens) (P35372 whole entry): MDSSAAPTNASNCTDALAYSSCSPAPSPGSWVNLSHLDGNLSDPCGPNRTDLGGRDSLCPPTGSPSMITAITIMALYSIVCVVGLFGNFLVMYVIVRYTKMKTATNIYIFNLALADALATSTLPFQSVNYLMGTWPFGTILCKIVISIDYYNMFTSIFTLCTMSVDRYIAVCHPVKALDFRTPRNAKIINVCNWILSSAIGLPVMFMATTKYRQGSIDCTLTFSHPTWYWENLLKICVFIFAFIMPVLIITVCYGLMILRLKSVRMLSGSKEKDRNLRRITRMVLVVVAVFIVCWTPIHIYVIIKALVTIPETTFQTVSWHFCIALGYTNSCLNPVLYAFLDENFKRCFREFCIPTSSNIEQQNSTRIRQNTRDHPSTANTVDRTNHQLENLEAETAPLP
Chain of Sodium-dependent noradrenaline transporter (Homo sapiens) (P23975 whole entry): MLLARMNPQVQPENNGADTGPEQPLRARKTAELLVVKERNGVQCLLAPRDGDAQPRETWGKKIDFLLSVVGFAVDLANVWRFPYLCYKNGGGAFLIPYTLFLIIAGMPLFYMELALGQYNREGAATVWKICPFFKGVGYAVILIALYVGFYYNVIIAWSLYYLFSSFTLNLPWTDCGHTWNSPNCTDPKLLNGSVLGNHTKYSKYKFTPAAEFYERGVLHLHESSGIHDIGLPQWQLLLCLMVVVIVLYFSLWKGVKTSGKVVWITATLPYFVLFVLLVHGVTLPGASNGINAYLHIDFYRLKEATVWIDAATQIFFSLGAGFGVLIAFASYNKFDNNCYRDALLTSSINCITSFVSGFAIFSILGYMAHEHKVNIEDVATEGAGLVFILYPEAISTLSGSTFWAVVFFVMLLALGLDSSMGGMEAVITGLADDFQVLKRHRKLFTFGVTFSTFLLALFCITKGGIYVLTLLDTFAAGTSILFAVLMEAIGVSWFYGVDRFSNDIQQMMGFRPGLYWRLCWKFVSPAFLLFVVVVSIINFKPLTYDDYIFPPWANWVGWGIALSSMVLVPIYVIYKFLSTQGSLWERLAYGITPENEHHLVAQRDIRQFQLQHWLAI
Chain of Sodium-dependent dopamine transporter (Homo sapiens) (Q01959 whole entry): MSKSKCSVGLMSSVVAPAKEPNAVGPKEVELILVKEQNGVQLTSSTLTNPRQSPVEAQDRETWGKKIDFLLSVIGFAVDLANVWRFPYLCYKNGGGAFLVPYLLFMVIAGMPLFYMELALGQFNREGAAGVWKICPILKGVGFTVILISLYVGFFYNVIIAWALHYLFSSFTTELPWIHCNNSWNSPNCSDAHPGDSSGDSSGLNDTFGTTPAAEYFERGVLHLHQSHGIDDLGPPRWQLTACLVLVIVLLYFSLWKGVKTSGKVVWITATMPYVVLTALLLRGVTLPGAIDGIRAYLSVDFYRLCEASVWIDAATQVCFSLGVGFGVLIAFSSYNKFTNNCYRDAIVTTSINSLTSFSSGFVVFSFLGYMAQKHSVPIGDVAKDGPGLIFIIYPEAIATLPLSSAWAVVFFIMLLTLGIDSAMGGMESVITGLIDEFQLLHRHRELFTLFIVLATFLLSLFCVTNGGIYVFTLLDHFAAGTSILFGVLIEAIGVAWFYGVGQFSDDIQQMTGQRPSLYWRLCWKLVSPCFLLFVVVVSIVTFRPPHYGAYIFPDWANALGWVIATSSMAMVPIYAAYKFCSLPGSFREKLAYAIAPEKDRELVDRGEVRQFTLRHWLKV

With `COC1=C[C@@H](C)O[C@@H](O[C@H]2CC[C@@]3(C)C(=CC[C@@H]4[C@@H]3CC[C@@]3(C)[C@H]4CC[C@]3(O)[C@H](C)O[C@H]3C[C@H]4OCO[C@@]5(C[C@@H](OC)[C@H](O[C@H]6C[C@H](OC)[C@H](O[C@H]7C[C@@H](O)[C@H](O[C@H]8C[C@H](OC)[C@H](O[C@H]9C[C@H](O)[C@H](OC(C)=O)[C@@H](C)O9)[C@@H](C)O8)[C@@H](C)O7)[C@@H](C)O6)[C@@H](C)O5)O[C@@H]4[C@@H](C)O3)C2)C1=O`, the IC50 in the assay with T-cell was 290 to 1970 nM.

`CN[C@@H]1CSCON2CCc3c([nH]c4ccc(O)c(Br)c34)[C@H]12`: the zone of inhibition at 20 µg/disc in the assay on Micrococcus luteus [1] came to 41 mm. The Activity with L1210 [2] is recorded as 100%.

Consider `CC[C@H](C)C1=C(O)[N@@+]2([O-])Oc3ccc(-c4c(O)c(O)c(-c5ccc(O)cc5)c(OC(C)=O)c4OC(C)=O)cc3O[C@@]2([C@@H](C)CC)C(=O)N1OC`, for which the midpoint of inhibition in [3], the IC50, lay at 29100 nM.

`COc1cc(CCN(C)C)c2sc3c(O)c(OC)cc(CCN(C)C)c3ssc2c1O` [LISSOCLIBADIN 4]: the results for the zone of inhibition at 50 µg/disc in the assay with Escherichia coli [4] and in the assay with Staphylococcus aureus [5] were 15.7 mm and 13.1 mm, respectively.

On to `CC[C@H](C)C1=C(O)[N@+]2([O-])Oc3ccc(-c4c(O)c(O)c(-c5ccc(OC(C)=O)cc5)c(OC(C)=O)c4OC(C)=O)cc3O[C@@]2([C@@H](C)CC)C(=O)N1O`, for which, in the assay with SF-268, the Activity came to 96%.

In the case of `CO[C@H]1C[C@H](O[C@@H]2[C@@H](C)O[C@@]3(C[C@H]2OC)OCO[C@@H]2C[C@H](O[C@@H](C)[C@@]4(O)CC[C@H]5[C@@H]6CC=C7C[C@@H](O)CC[C@]7(C)[C@H]6CC[C@@]54C)O[C@H](C)[C@H]2O3)O[C@H](C)[C@H]1O[C@H]1C[C@@H](O)[C@H](O[C@H]2C[C@H](OC)[C@H](O[C@H]3C[C@@H](OC)[C@H](O)[C@@H](C)O3)[C@@H](C)O2)[C@@H](C)O1`, the IC50 in the assay with T-cell is 290 to 1970 nM.

`COc1c(OC)c2c(c(CCN)c1SC)SSS2` registered an IC50 in assay [6] of more than 25 µg/mL.

The compound `COc1c(OC)c2c(c(CCN)c1SC)SSSSS2` had an IC50 in assay [6] of more than 25 µg/mL.

On to `CO[C@H]1C[C@H](O[C@H]2[C@@H](OC)C[C@H](O[C@H]3[C@H](O)C[C@H](O[C@H]4[C@@H](OC)C[C@H](O[C@@H]5[C@@H](C)O[C@@]6(C[C@H]5OC)OCO[C@@H]5C[C@H](O[C@@H](C)[C@@]7(O)CC[C@H]8[C@@H]9CC=C%10C[C@@H](O)CC[C@]%10(C)[C@H]9CC[C@@]87C)O[C@H](C)[C@H]5O6)O[C@@H]4C)O[C@@H]3C)O[C@@H]2C)O[C@H](C)[C@H]1OC(C)=O`, for which the IC50 with T-cell is 290 to 1970 nM.

For the compound `COc1c(OC)c2c(c(CCN(C)C)c1SC)SSSSS2`, the zone of inhibition at 50 µg/disc in the assay with Ruegeria atlantica, in the assay with Escherichia coli [4], in the assay with Staphylococcus aureus [5], in the assay with Mucor hiemalis and in the assay with Saccharomyces cerevisiae was 14.2 to 30 mm throughout. For the same compound, the half-inhibitory concentration (IC50) in the assay with V79 is 150 nM; in assay [6] it was more than 25 µg/mL.

As to `C=C[C@H](O)Cc1nsc(C2=CCCS[C@@]23C(=O)Nc2ccccc23)n1`, in the assay on Human alphaherpesvirus 1, the IC50 worked out at 25900 nM.

Consider `COc1cc(CCN(C)C)c2c(c1O)SSSSS2` [ISOLISSOCLINOTOXIN B], for which the IC50 came out at 250 nM in the assay on V79 and 640 nM in the assay with L1210 [7].

Regarding `CC[C@H](C)C1=C(OC(C)=O)[N@+]2([O-])Oc3ccc(-c4c(O)c(O)c(-c5ccc(OC(C)=O)cc5)c(OC(C)=O)c4OC(C)=O)cc3O[C@@]2([C@@H](C)CC)C(=O)N1O`, the Activity in the assay with SF-268 is recorded as 93%.

As for `COc1cc(CCN(C)C)c2c(c1O)SSC(C)S2` (stereo not drawn), the IC50 with V79 was determined as 140 nM; in the assay with L1210 [7], 700 nM.

Consider `NCCc1cc(O)c(O)c2c1SSSSS2`, for which the half-inhibitory concentration (IC50) in [6] is more than 25 µg/mL.

Regarding `CC[C@H](C)C1=C(O)[N@@+]2([O-])Oc3ccc(-c4c(O)c(O)c(-c5ccc(OC(C)=O)cc5)c(OC(C)=O)c4OC(C)=O)cc3O[C@@]2([C@@H](C)CC)C(=O)N1O`, the Activity with SF-268 was 95%.

For the compound `COC1=C[C@@H](C)O[C@@H](O[C@H]2CC[C@@]3(C)C(=CC[C@@H]4[C@@H]3CC[C@@]3(C)[C@H]4CC[C@]3(O)[C@H](C)O[C@H]3C[C@H]4OCO[C@@]5(C[C@@H](OC)[C@H](O[C@H]6C[C@H](O)[C@H](O[C@H]7C[C@@H](O)[C@H](O[C@H]8C[C@H](OC)[C@H](O[C@@H]9O[C@H](C)[C@H](O)[C@H](OC)[C@H]9OC(C)=O)[C@@H](C)O8)[C@@H](C)O7)[C@@H](C)O6)[C@@H](C)O5)O[C@@H]4[C@@H](C)O3)C2)C1=O`, in the assay with T-cell, the half-inhibitory concentration (IC50) was 290 to 1970 nM.

For `COC1=C[C@@H](C)O[C@@H](O[C@H]2CC[C@@]3(C)C(=CC[C@@H]4[C@@H]3CC[C@@]3(C)[C@H]4CC[C@]3(O)[C@H](C)O[C@H]3C[C@H]4OCO[C@@]5(C[C@@H](OC)[C@H](O[C@H]6C[C@H](OC)[C@H](O[C@H]7C[C@@H](O)[C@H](O[C@H]8C[C@H](OC)[C@H](O[C@H]9C[C@@H](OC)[C@H](O)[C@@H](C)O9)[C@@H](C)O8)[C@@H](C)O7)[C@@H](C)O6)[C@@H](C)O5)O[C@@H]4[C@@H](C)O3)C2)C1=O`, the IC50 in the assay with T-cell was in the range of 290 to 1970 nM.

`N=C(N)NCCCCCNc1noc(Cc2c[nH]c3ccccc23)n1`: the inhibition in assay [8] turned out to be 16%; in [9] it was 45%; in [10] it was 96%; in assay [11], 97%.

For the compound `COc1cc(CCN(C)C)c2sc3c(OC)c(OC)c(SC)c(CCN(C)C)c3ssc2c1O` [LISSOCLIBADIN 5], the results for the zone of inhibition at 50 µg/disc with Escherichia coli [4] and in the assay with Staphylococcus aureus [5] were 11.6 mm and 15.8 mm, respectively.

With `CC(=O)O[C@H]1CC[C@]23C[C@]24CC[C@]2(C)[C@@H]([C@H](C)CCC5OOC(C)(C)O5)CC[C@@]2(C)[C@@H]4CC[C@H]3C1(C)C` (stereo partly drawn), the “inhibition zone (IZ)” value in the assay on Cercospora sojina, with Aspergillus niger and in the assay with Fusarium oxysporum was 2 mm each time.

As to `CC[C@H](C)C1=C(O)[N@+]2([O-])Oc3ccc(-c4c(O)c(O)c(-c5ccc(O)cc5)c(OC(C)=O)c4OC(C)=O)cc3O[C@@]2([C@@H](C)CC)C(=O)N1OC`, the half-inhibitory concentration (IC50) in assay [3] stood at 25000 nM.

Regarding `N[C@@H]1CSCON2CCc3c([nH]c4ccc(O)c(Br)c34)[C@H]12` [EUDISTOMIN E], the zone of inhibition at 20 µg/disc with Micrococcus luteus [1] stood at 46 mm. In the assay on L1210 [2], the Activity was found to be 100%.

For `COc1c(OC)c2c(c(CCN(C)C)c1SC)SSS2`, the zone of inhibition at 50 µg/disc in the assay on Ruegeria atlantica, in the assay with Escherichia coli [4], in the assay on Staphylococcus aureus [5], with Mucor hiemalis and in the assay on Saccharomyces cerevisiae was 10.3 to 32.4 mm throughout. Also, the IC50 in the assay with V79 was 190 nM; in [6], more than 25 µg/mL.

Turning to `C1SCSSCS1`, in the assay on Pyricularia oryzae, the MIC was 50 µg/mL (≈ 294 µM).

On to `Cc1cc(=O)n2nc(CC(=O)c3ccccc3)nc2[nH]1` [ESSRAMYCIN], for which the minimal inhibitory concentration (MIC) in the assay with Escherichia coli [12], with Staphylococcus aureus [13], in the assay with Pseudomonas aeruginosa, in the assay on Bacillus subtilis and in the assay on Micrococcus luteus [14] was 1 to 8 µg/mL (≈ 3.73 to 29.8 µM) throughout.
